The assay has as its target T1, CGRP1 receptor (Homo sapiens, UniProt O60894+Q16602).
T1 construct: SK-N-MC cells express CRLR and RAMP1, which form CGRP1 receptor; endogenous in cells; host or cells: SK-N-MC human neuroblastoma cells
Briefly: in vitro CGRP1 receptor mediated cAMP assay in SK-N-MC cells. The class given is cell-based. The note with it: Table 2A; read-out: IC50. The protocol:
The in vitro cAMP assay employed a human neuroblastoma-derived cell line (SK-N-MC). SK-N-MC cells express CRLR and RAMP1, which form CGRP1 receptor. CGRP1 receptor is a G-protein coupled receptor linked to the stimulatory G-protein, Gs. […] Briefly, two days before the assay, the cells were plated in 96-well plates in growth medium. On the day of the assay cells were rinsed with PBS followed by the addition of 60 μl of plasma free medium for 15 minutes at room temperature. […] The medium was then removed and the cells were lysed with 100 μl lysis buffer for 30 minutes at 37° C. for 30 minutes. Using a Tropix ELISA kit (Applied Biosystems, Foster City, Calif.), a cAMP-AP conjugate was diluted (1:100) and added (30 μl) to each well of a 96-well ELISA plate. An aliquot of the lysis buffer from the cell plate was then added to the ELISA plate followed by an aliquot of the cAMP antibody. This mixture was incubated for 1 hour at room temperature with gentle shaking. The ELISA plate was then washed 6× with wash buffer followed by the additions of a substrate enhancer. This mixture was incubated for 30 minutes at room temperature and then read on a MicroBeta Jet or EnVision plate reader. The results were analyzed using Prism (GraphPad).

Experimental findings from patent US8168592B2 (Amgen Inc., priority 2005, dated 2012) are described below.

Square brackets hold non-standard residues; d marks the D form. Peptide text beside a SMILES is read from it. Oic = O=C(O)[C@@H]1C[C@@H]2CCCC[C@@H]2N1; 1Nal = N[C@@H](Cc1cccc2ccccc12)C(=O)O; 2Nal = N[C@@H](Cc1ccc2ccccc2c1)C(=O)O; hArg = N=C(N)NCCCC[C@H](N)C(=O)O; Tic = O=C(O)[C@@H]1Cc2ccccc2CN1; Cit = NC(=O)NCCC[C@H](N)C(=O)O

A word on the IC50: it is the concentration that inhibits the measured activity by half.

T1 sequence (Q16602 23-461): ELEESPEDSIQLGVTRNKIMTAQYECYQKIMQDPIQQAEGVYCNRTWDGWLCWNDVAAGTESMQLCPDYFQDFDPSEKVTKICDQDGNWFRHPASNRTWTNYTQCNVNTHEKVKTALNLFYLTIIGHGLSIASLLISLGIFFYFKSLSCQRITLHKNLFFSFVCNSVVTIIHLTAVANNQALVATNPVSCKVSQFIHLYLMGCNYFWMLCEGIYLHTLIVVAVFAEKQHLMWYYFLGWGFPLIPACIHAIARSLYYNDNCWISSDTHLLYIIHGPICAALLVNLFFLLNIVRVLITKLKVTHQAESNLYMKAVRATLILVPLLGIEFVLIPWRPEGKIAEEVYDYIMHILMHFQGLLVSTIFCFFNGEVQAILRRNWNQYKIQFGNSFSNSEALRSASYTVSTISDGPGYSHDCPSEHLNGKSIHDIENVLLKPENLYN
T1 sequence (O60894 27-148): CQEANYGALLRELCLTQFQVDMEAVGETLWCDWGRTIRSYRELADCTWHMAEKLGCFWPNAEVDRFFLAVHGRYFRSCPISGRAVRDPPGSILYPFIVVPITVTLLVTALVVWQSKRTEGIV

`CC(=O)N[C@@H](Cc1c[nH]c2ccccc12)C(=O)N[C@H](C(=O)N[C@H](C(=O)N[C@@H](Cc1c[nH]cn1)C(=O)N[C@@H](CCCNC(N)=O)C(=O)N[C@@H](CC(C)C)C(=O)N[C@@H](C)C(=O)NCC(=O)N[C@@H](CC(C)C)C(=O)N[C@@H](CC(C)C)C(=O)N[C@@H](CO)C(=O)N[C@@H](CCCNC(N)=O)C(=O)N[C@@H](CO)C(=O)NCC(=O)NCC(=O)N[C@H](C(=O)N[C@H](C(=O)N[C@@H](CCCCNC(=N)N)C(=O)N[C@@H](CCCCN)C(=O)N[C@@H](CC(N)=O)C(=O)N[C@@H](Cc1ccc2ccccc2c1)C(=O)N[C@H](C(=O)N1CCC[C@H]1C(=O)N[C@H](C(=O)N[C@@H](CC(=O)O)C(=O)N[C@H](C(=O)NCC(=O)N1[C@H](C(=O)N[C@@H](Cc2ccccc2)C(=O)N[C@@H](C)C(=O)N[C@@H](Cc2ccccc2)C(N)=O)C[C@@H]2CCCC[C@@H]21)C(C)C)[C@@H](C)O)C(C)C)C(C)C)C(C)C)[C@@H](C)O)C(C)C` [compound 137] (Ac-WVTH[Cit]LAGLLS[Cit]SGGVV[hArg]KN[2Nal]VPTDVG[Oic]FAF-NH2): the IC50 stood at 2.66 nM.

`CC(=O)N[C@@H](Cc1c[nH]c2ccccc12)C(=O)N[C@H](C(=O)N[C@H](C(=O)N[C@@H](Cc1c[nH]cn1)C(=O)N[C@@H](CCCNC(N)=O)C(=O)N[C@@H](CC(C)C)C(=O)N[C@@H](C)C(=O)NCC(=O)N[C@@H](CC(C)C)C(=O)N[C@@H](CC(C)C)C(=O)N[C@@H](CO)C(=O)N[C@@H](CCCNC(N)=O)C(=O)N[C@@H](CO)C(=O)NCC(=O)NCC(=O)N[C@H](C(=O)N[C@H](C(=O)N[C@@H](CCCCNC(=N)N)C(=O)N[C@@H](CCCCN)C(=O)N[C@@H](CC(N)=O)C(=O)N[C@@H](Cc1ccc2ccccc2c1)C(=O)N[C@H](C(=O)N1CCC[C@H]1C(=O)N[C@H](C(=O)N[C@@H](CC(=O)O)C(=O)N[C@H](C(=O)NCC(=O)N1[C@H](C(=O)N[C@@H](Cc2ccccc2)C(=O)N[C@@H](C)C(=O)N[C@@H](Cc2ccc3ccccc3c2)C(N)=O)C[C@@H]2CCCC[C@@H]21)C(C)C)[C@@H](C)O)C(C)C)C(C)C)C(C)C)[C@@H](C)O)C(C)C` [compound 138] (Ac-WVTH[Cit]LAGLLS[Cit]SGGVV[hArg]KN[2Nal]VPTDVG[Oic]FA[2Nal]-NH2): the half-inhibitory concentration (IC50) turned out to be 3.45 nM.

`CC(=O)N[C@@H](Cc1c[nH]c2ccccc12)C(=O)N[C@H](C(=O)N[C@H](C(=O)N[C@@H](Cc1c[nH]cn1)C(=O)N[C@@H](CCCNC(N)=O)C(=O)N[C@@H](CC(C)C)C(=O)N[C@@H](C)C(=O)NCC(=O)N[C@@H](CC(C)C)C(=O)N[C@@H](CC(C)C)C(=O)N[C@@H](CO)C(=O)N[C@@H](CCCNC(N)=O)C(=O)N[C@@H](CO)C(=O)NCC(=O)NCC(=O)N[C@H](C(=O)N[C@H](C(=O)N[C@@H](CCCCNC(=N)N)C(=O)N[C@@H](CCCCN)C(=O)N[C@@H](CC(N)=O)C(=O)N[C@@H](Cc1ccc2ccccc2c1)C(=O)N[C@H](C(=O)N1[C@H](C(=O)N[C@H](C(=O)N[C@@H](CC(=O)O)C(=O)N[C@H](C(=O)NCC(=O)N2[C@H](C(=O)N[C@@H](Cc3ccccc3)C(=O)N[C@@H](C)C(=O)N[C@@H](Cc3ccc4ccccc4c3)C(N)=O)C[C@@H]3CCCC[C@@H]32)C(C)C)[C@@H](C)O)C[C@@H]2CCCC[C@@H]21)C(C)C)C(C)C)C(C)C)[C@@H](C)O)C(C)C` [compound 139] (Ac-WVTH[Cit]LAGLLS[Cit]SGGVV[hArg]KN[2Nal]V[Oic]TDVG[Oic]FA[2Nal]-NH2): the IC50 turned out to be 3.57 nM. For the compound `CC(=O)N[C@@H](Cc1c[nH]c2ccccc12)C(=O)N[C@H](C(=O)N[C@H](C(=O)N[C@@H](Cc1c[nH]cn1)C(=O)N[C@@H](CCCNC(N)=O)C(=O)N[C@@H](CC(C)C)C(=O)N[C@@H](C)C(=O)NCC(=O)N[C@@H](CC(C)C)C(=O)N[C@@H](CC(C)C)C(=O)N[C@@H](CO)C(=O)N[C@@H](CCCNC(N)=O)C(=O)N[C@@H](CO)C(=O)NCC(=O)NCC(=O)N[C@H](C(=O)N[C@H](C(=O)N[C@@H](CCCCNC(=N)N)C(=O)N[C@@H](CCCCN)C(=O)N[C@@H](CC(N)=O)C(=O)N[C@@H](Cc1ccccc1)C(=O)N[C@H](C(=O)N1CCC[C@H]1C(=O)N[C@H](C(=O)N[C@@H](CC(=O)O)C(=O)N[C@H](C(=O)NCC(=O)N1CCC[C@H]1C(=O)N[C@@H](Cc1cccc2ccccc12)C(=O)N[C@@H](C)C(=O)N[C@@H](Cc1ccccc1)C(N)=O)C(C)C)[C@@H](C)O)C(C)C)C(C)C)C(C)C)[C@@H](C)O)C(C)C` [compound 144] (Ac-WVTH[Cit]LAGLLS[Cit]SGGVV[hArg]KNFVPTDVGP[1Nal]AF-NH2), the IC50 is 2.24 nM.

`CC(=O)N[C@@H](Cc1c[nH]c2ccccc12)C(=O)N[C@H](C(=O)N[C@H](C(=O)N[C@@H](Cc1c[nH]cn1)C(=O)N[C@@H](CCCNC(N)=O)C(=O)N[C@@H](CC(C)C)C(=O)N[C@@H](C)C(=O)NCC(=O)N[C@@H](CC(C)C)C(=O)N[C@@H](CC(C)C)C(=O)N[C@@H](CO)C(=O)N[C@@H](CCCNC(N)=O)C(=O)N[C@@H](CO)C(=O)NCC(=O)NCC(=O)N[C@H](C(=O)N[C@H](C(=O)N[C@@H](CCCNC(=N)N)C(=O)N[C@@H](CCCCN)C(=O)N[C@@H](CC(N)=O)C(=O)N[C@@H](Cc1ccccc1)C(=O)N[C@H](C(=O)N1CCC[C@H]1C(=O)N[C@H](C(=O)N[C@@H](CC(=O)O)C(=O)N[C@H](C(=O)NCC(=O)N1CCC[C@H]1C(=O)N1Cc2ccccc2C[C@H]1C(=O)N[C@@H](C)C(=O)N[C@@H](Cc1ccccc1)C(N)=O)C(C)C)[C@@H](C)O)C(C)C)C(C)C)C(C)C)[C@@H](C)O)C(C)C` [compound 146] (Ac-WVTH[Cit]LAGLLS[Cit]SGGVVRKNFVPTDVGP[Tic]AF-NH2): the 50% inhibitory concentration (IC50) was found to be 10.1 nM. To `CC(=O)N[C@@H](Cc1c[nH]c2ccccc12)C(=O)N[C@H](C(=O)N[C@H](C(=O)N[C@@H](Cc1cnc[nH]1)C(=O)N[C@@H](CCCNC(N)=O)C(=O)N[C@@H](CC(C)C)C(=O)N[C@@H](C)C(=O)NCC(=O)N[C@@H](CC(C)C)C(=O)N[C@@H](CC(C)C)C(=O)N[C@@H](CO)C(=O)N[C@@H](CCCNC(N)=O)C(=O)N[C@@H](CO)C(=O)NCC(=O)NCC(=O)N[C@H](C(=O)N[C@H](C(=O)N[C@@H](CCCCNC(=N)N)C(=O)N[C@@H](CCCCN)C(=O)N[C@@H](CC(N)=O)C(=O)N[C@@H](Cc1ccccc1)C(=O)N[C@H](C(=O)N1CCC[C@H]1C(=O)N[C@H](C(=O)N[C@@H](CC(=O)O)C(=O)N[C@H](C(=O)NCC(=O)N1CCC[C@H]1C(=O)N[C@@H](Cc1ccccc1)C(=O)N[C@@H](C)C(=O)N[C@@H](Cc1ccccc1)C(N)=O)C(C)C)[C@@H](C)O)C(C)C)C(C)C)C(C)C)[C@@H](C)O)C(C)C` [compound 653] belongs 3.22 nM. Regarding `CC(=O)N[C@H](C(=O)N[C@H](C(=O)N[C@H](C(=O)N[C@H](C(=O)N[C@@H](Cc1c[nH]cn1)C(=O)N[C@@H](CCCNC(N)=O)C(=O)N[C@@H](CC(C)C)C(=O)N[C@@H](C)C(=O)NCC(=O)N[C@@H](CC(C)C)C(=O)N[C@@H](CC(C)C)C(=O)N[C@@H](CO)C(=O)N[C@@H](CCCNC(N)=O)C(=O)N[C@@H](CO)C(=O)NCC(=O)NCC(=O)N[C@H](C(=O)N[C@H](C(=O)N[C@@H](CCCCNC(=N)N)C(=O)N[C@@H](CCCCN)C(=O)N[C@@H](CC(N)=O)C(=O)N[C@@H](Cc1ccccc1)C(=O)N[C@H](C(=O)N1CCC[C@H]1C(=O)N[C@H](C(=O)N[C@@H](CC(=O)O)C(=O)N[C@H](C(=O)NCC(=O)N1CCC[C@H]1C(=O)N[C@@H](Cc1ccccc1)C(=O)N[C@@H](C)C(N)=O)C(C)C)[C@@H](C)O)C(C)C)C(C)C)C(C)C)[C@@H](C)O)C(C)C)C(C)C)C(C)C` [compound 654] (Ac-VVVTH[Cit]LAGLLS[Cit]SGGVV[hArg]KNFVPTDVGPFA-NH2), the half-maximal inhibitory concentration (IC50) is above 1000 nM. With `CC(=O)N[C@@H](Cc1c[nH]c2ccccc12)C(=O)N[C@H](C(=O)N[C@H](C(=O)N[C@@H](Cc1c[nH]cn1)C(=O)N[C@@H](CCCNC(N)=O)C(=O)N[C@@H](CC(C)C)C(=O)N[C@@H](C)C(=O)NCC(=O)N[C@@H](CC(C)C)C(=O)N[C@@H](CC(C)C)C(=O)N[C@@H](CO)C(=O)N[C@@H](CCCNC(N)=O)C(=O)N[C@@H](CO)C(=O)NCC(=O)NCC(=O)N[C@H](C(=O)N[C@H](C(=O)N[C@@H](CCCCNC(=N)N)C(=O)N[C@@H](CCCCN)C(=O)N[C@@H](CC(N)=O)C(=O)N[C@@H](Cc1ccccc1)C(=O)N[C@H](C(=O)N1CCC[C@H]1C(=O)N[C@H](C(=O)N[C@@H](CC(=O)O)C(=O)N[C@H](C(=O)NCC(=O)N1CCC[C@H]1C(=O)N[C@@H](Cc1ccccc1)C(N)=O)C(C)C)[C@@H](C)O)C(C)C)C(C)C)C(C)C)[C@@H](C)O)C(C)C` [compound 655] (Ac-WVTH[Cit]LAGLLS[Cit]SGGVV[hArg]KNFVPTDVGPF-NH2), the 50% inhibitory concentration (IC50) is above 1000 nM.

Consider `CC(=O)N[C@@H](Cc1c[nH]c2ccccc12)C(=O)N[C@H](C(=O)N[C@H](C(=O)N[C@@H](Cc1c[nH]cn1)C(=O)N[C@@H](CCCNC(N)=O)C(=O)N[C@@H](CC(C)C)C(=O)N[C@@H](C)C(=O)NCC(=O)N[C@@H](CC(C)C)C(=O)N[C@@H](CC(C)C)C(=O)N[C@@H](CO)C(=O)N[C@@H](CCCNC(N)=O)C(=O)N[C@@H](CO)C(=O)NCC(=O)NCC(=O)N[C@H](C(=O)N[C@H](C(=O)N[C@@H](CCCCNC(=N)N)C(=O)N[C@@H](CCCCN)C(=O)N[C@@H](CC(N)=O)C(=O)N[C@@H](Cc1ccccc1)C(=O)N[C@H](C(=O)N1CCC[C@H]1C(=O)N[C@H](C(=O)N[C@@H](CC(=O)O)C(=O)N[C@H](C(=O)NCC(=O)N1CCC[C@H]1C(N)=O)C(C)C)[C@@H](C)O)C(C)C)C(C)C)C(C)C)[C@@H](C)O)C(C)C` [compound 656] (Ac-WVTH[Cit]LAGLLS[Cit]SGGVV[hArg]KNFVPTDVGP-NH2), for which the IC50 is above 1000 nM.
